According to PubChem BioAssay (NCI):
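Protocol summary: plate cells (96-well), add compound at 5 concentrations, incubate 48 h, interpolate endpoints linearly. GI50 = concentration required for 50% inhibition of growth. TGI marks complete inhibition of growth.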

Columns and labels:
Test in all cases: NCI anticancer screen, dose series, 48 h
HT29 colon = system: HT29 colon
HCT-15 colon = system: HCT-15 colon
PC-3 prostate = system: PC-3 prostate
MOLT-4 leukemia = system: MOLT-4 leukemia
SK-MEL-5 melanoma = system: SK-MEL-5 melanoma
HCC-2998 colon = system: HCC-2998 colon
HS 578T breast = system: HS 578T breast
CCRF-CEM leukemia = system: CCRF-CEM leukemia
OVCAR-8 ovarian = system: OVCAR-8 ovarian
UO-31 renal = system: UO-31 renal
MCF7 breast = system: MCF7 breast
U251 CNS = system: U251 CNS
UACC-62 melanoma = system: UACC-62 melanoma
A498 renal = system: A498 renal
HL-60(TB) leukemia = system: HL-60(TB) leukemia
SNB-75 CNS = system: SNB-75 CNS
BT-549 breast = system: BT-549 breast
CAKI-1 renal = system: CAKI-1 renal
M14 melanoma = system: M14 melanoma
SNB-19 CNS = system: SNB-19 CNS
NCI-H522 lung = system: NCI-H522 lung
SK-MEL-2 melanoma = system: SK-MEL-2 melanoma
SK-OV-3 ovarian = system: SK-OV-3 ovarian
HOP-62 NSCLC = system: HOP-62 NSCLC
KM12 colon = system: KM12 colon
MALME-3M melanoma = system: MALME-3M melanoma
NCI-H23 lung = system: NCI-H23 lung
HCT-116 colon = system: HCT-116 colon
SK-MEL-28 melanoma = system: SK-MEL-28 melanoma
ACHN renal = system: ACHN renal
IGROV1 ovarian = system: IGROV1 ovarian
SR leukemia = system: SR leukemia
NCI/ADR-RES ovarian = system: NCI/ADR-RES ovarian
SF-295 CNS = system: SF-295 CNS
NCI-H226 lung = system: NCI-H226 lung
OVCAR-4 ovarian = system: OVCAR-4 ovarian
RXF 393 renal = system: RXF 393 renal
OVCAR-5 ovarian = system: OVCAR-5 ovarian
RPMI-8226 leukemia = system: RPMI-8226 leukemia
TK-10 renal = system: TK-10 renal
SF-539 CNS = system: SF-539 CNS
K-562 leukemia = system: K-562 leukemia
T-47D breast = system: T-47D breast
UACC-257 melanoma = system: UACC-257 melanoma
MDA-MB-435 = system: MDA-MB-435
786-0 renal = system: 786-0 renal
MDA-MB-231 breast = system: MDA-MB-231 breast
SF-268 CNS = system: SF-268 CNS
HOP-92 NSCLC = system: HOP-92 NSCLC
A549 NSCLC = system: A549 NSCLC
EKVX NSCLC = system: EKVX NSCLC
DU-145 prostate = system: DU-145 prostate
SN12C renal = system: SN12C renal
COLO 205 colon = system: COLO 205 colon

Compound: Oc1ccc(CSc2nnc(-c3ccc(Oc4ccccc4)cc3)o2)c2cccnc12
- GI50 (HT29 colon): > 100000 nM
- TGI (HT29 colon): > 100000 nM
- GI50 (HCT-15 colon): 368 nM
- TGI (HCT-15 colon): > 100000 nM
- GI50 (PC-3 prostate): 561 nM
- TGI (PC-3 prostate): > 100000 nM
- GI50 (MOLT-4 leukemia): 1280 nM
- TGI (MOLT-4 leukemia): > 100000 nM
- GI50 (SK-MEL-5 melanoma): 1270 nM
- TGI (SK-MEL-5 melanoma): > 100000 nM
- GI50 (HCC-2998 colon): 1040 nM
- TGI (HCC-2998 colon): > 100000 nM
- GI50 (HS 578T breast): 612 nM
- TGI (HS 578T breast): 27400 nM
- GI50 (CCRF-CEM leukemia): 498 nM
- TGI (CCRF-CEM leukemia): > 100000 nM
- GI50 (OVCAR-8 ovarian): 633 nM
- TGI (OVCAR-8 ovarian): > 100000 nM
- GI50 (UO-31 renal): 373 nM
- TGI (UO-31 renal): 2380 nM
- GI50 (MCF7 breast): 497 nM
- TGI (MCF7 breast): > 100000 nM
- GI50 (U251 CNS): 460 nM
- TGI (U251 CNS): 2700 nM
- GI50 (UACC-62 melanoma): 2410 nM
- TGI (UACC-62 melanoma): > 100000 nM
- GI50 (A498 renal): 8410 nM
- TGI (A498 renal): > 100000 nM
- GI50 (HL-60(TB) leukemia): 668 nM
- TGI (HL-60(TB) leukemia): > 100000 nM
- GI50 (SNB-75 CNS): 595 nM
- TGI (SNB-75 CNS): 3920 nM
- GI50 (BT-549 breast): 905 nM
- TGI (BT-549 breast): > 100000 nM
- GI50 (CAKI-1 renal): 1880 nM
- TGI (CAKI-1 renal): > 100000 nM
- GI50 (M14 melanoma): 621 nM
- TGI (M14 melanoma): > 100000 nM
- GI50 (SNB-19 CNS): 421 nM
- TGI (SNB-19 CNS): > 100000 nM
- GI50 (NCI-H522 lung): 4990 nM
- TGI (NCI-H522 lung): > 100000 nM
- GI50 (SK-MEL-2 melanoma): 3560 nM
- TGI (SK-MEL-2 melanoma): 90200 nM
- GI50 (SK-OV-3 ovarian): 1920 nM
- TGI (SK-OV-3 ovarian): 21800 nM
- GI50 (HOP-62 NSCLC): 682 nM
- TGI (HOP-62 NSCLC): 9850 nM
- GI50 (KM12 colon): 2650 nM
- TGI (KM12 colon): > 100000 nM
- GI50 (MALME-3M melanoma): 4540 nM
- TGI (MALME-3M melanoma): > 100000 nM
- GI50 (NCI-H23 lung): 739 nM
- TGI (NCI-H23 lung): 44900 nM
- GI50 (HCT-116 colon): 420 nM
- TGI (HCT-116 colon): 4400 nM
- GI50 (SK-MEL-28 melanoma): 4800 nM
- TGI (SK-MEL-28 melanoma): > 100000 nM
- GI50 (ACHN renal): 565 nM
- TGI (ACHN renal): 2140 nM
- GI50 (IGROV1 ovarian): 645 nM
- TGI (IGROV1 ovarian): > 100000 nM
- GI50 (SR leukemia): 370 nM
- TGI (SR leukemia): > 100000 nM
- GI50 (NCI/ADR-RES ovarian): 489 nM
- TGI (NCI/ADR-RES ovarian): 84600 nM
- GI50 (SF-295 CNS): 877 nM
- TGI (SF-295 CNS): 7490 nM
- GI50 (NCI-H226 lung): 15300 nM
- TGI (NCI-H226 lung): > 100000 nM
- GI50 (OVCAR-4 ovarian): 1770 nM
- TGI (OVCAR-4 ovarian): 8010 nM
- GI50 (RXF 393 renal): 3550 nM
- TGI (RXF 393 renal): > 100000 nM
- GI50 (OVCAR-5 ovarian): 8020 nM
- TGI (OVCAR-5 ovarian): > 100000 nM
- GI50 (RPMI-8226 leukemia): 458 nM
- TGI (RPMI-8226 leukemia): > 100000 nM
- GI50 (TK-10 renal): 2450 nM
- TGI (TK-10 renal): 69800 nM
- GI50 (SF-539 CNS): 689 nM
- TGI (SF-539 CNS): 55500 nM
- GI50 (K-562 leukemia): 368 nM
- TGI (K-562 leukemia): > 100000 nM
- GI50 (T-47D breast): 2170 nM
- TGI (T-47D breast): 9120 nM
- GI50 (UACC-257 melanoma): 15700 nM
- TGI (UACC-257 melanoma): > 100000 nM
- GI50 (MDA-MB-435): 713 nM
- TGI (MDA-MB-435): > 100000 nM
- GI50 (786-0 renal): 1020 nM
- TGI (786-0 renal): 5880 nM
- GI50 (MDA-MB-231 breast): 1490 nM
- TGI (MDA-MB-231 breast): 79900 nM
- GI50 (SF-268 CNS): 659 nM
- TGI (SF-268 CNS): > 100000 nM
- GI50 (HOP-92 NSCLC): 1410 nM
- TGI (HOP-92 NSCLC): 24900 nM
- GI50 (A549 NSCLC): 1680 nM
- TGI (A549 NSCLC): > 100000 nM
- GI50 (EKVX NSCLC): 515 nM
- TGI (EKVX NSCLC): > 100000 nM
- GI50 (DU-145 prostate): 3270 nM
- TGI (DU-145 prostate): > 100000 nM
- GI50 (SN12C renal): 2130 nM
- TGI (SN12C renal): > 100000 nM
- GI50 (COLO 205 colon): > 100000 nM
- TGI (COLO 205 colon): > 100000 nM
